{"source": "patent US6288125A", "about": "“Treatment of hiatial hernia” (Knoll Pharmaceuticals Company, priority 2000, dated 2001)", "test_system": "reuptake of all three monoamines", "experiment": "monoamine reuptake inhibition profile (in words, with reference to Table 1)", "assay_type": "biochemical, rat", "settings": "sibutramine through its pharmacologically active metabolites 1 and 2", "data": [{"smiles": "CC(C)CC(N(C)C)C1(c2ccc(Cl)cc2)CCC1", "note": "(stereo not shown) [sibutramine, N,N-dimethyl-1-[1-(4-chlorophenyl)cyclobutyl]-3-methylbutylamine]", "values": [{"measurement": "monoamine reuptake inhibition / selectivity in words", "result": "inhibits the reuptake of all three monoamines"}]}]}
